What all share (type): physicochemical
Data set [1] in a line: Stress stability study, HPLC purity and assay before and after. The settings on record: 60° C.±2° C. for 15 days. How it is done: Stress stability studies of cefdinir crystal B were performed by keeping samples of cefdinir crystal B under the conditions of 60° C.±2° C. for 15 days, and the purity and assay of the samples were determined before and after the stress test by high performance liquid chromatography. […] Table 3 summaries the results of the stress test studies.

A short description of data set [2]: Accelerated storage stability, 40° C. ± 2° C./75% RH ± 5% RH. The settings on record: for Assay (% w/w, by HPLC OAB), % change / Total RS (% area normalization, by HPLC) / Assay (% w/w, by HPLC OAB): accelerated 40° C. ± 2° C./75% RH ± 5% RH.
A short description of data set [3]: Real time storage stability, 25° C. ± 2° C./60% RH ± 5% RH. The settings on record: for Assay (% w/w, by HPLC OAB), % change / Total RS (% area normalization, by HPLC) / Assay (% w/w, by HPLC OAB): real time 25° C. ± 2° C./60% RH ± 5% RH.
[4] abbreviates: 1 Month, listed as Crystal B Sample 1.
The mark [5] stands for this setting: 2 Months, listed as Crystal B Sample 1.
[6] abbreviates: 2 Months, listed as Crystal B Sample 2.
[7] abbreviates: 3 Months, listed as Crystal B Sample 1.
[8] abbreviates: 3 Months, listed as Crystal B Sample 2.
[9] abbreviates: Initial, listed as Crystal B Sample 1.
[10] abbreviates: Initial, listed as Crystal B Sample 2.

Several values for one entry are separate records, joined by “and”; a condition that tells them apart may be missing. Equal entries are not always repeated. Entries after “also recorded” stand apart in the source; their conditions may differ.

As for `C=CC1=C(C(=O)O)N2C(=O)[C@@H](NC(=O)/C(=N\O)c3csc(N)n3)[C@H]2SC1` [Cefdinir Crystal B, 7β-[(Z)-2-(2-amino-4-thiazolyl)-2-hydroxyiminoacetamido]-3-vinyl-3-cephem-4-carboxylic acid], the “Assay (by HPLC on anhydrous basis, % change)” value in data set [1] was 0%. For the same compound, in data set [1], the “Degradation in stress test (in words)” value was “did not degrade”. In addition, the “Purity (by HPLC, % change)” value in data set [1] was −0.21% and −0.33%. Besides, the “Assay (% w/w, by HPLC OAB), % change” value is given as 0.0% in data set [2] (setting [4]); 0.0% in data set [2] (setting [5]); 0.0% in data set [2] (setting [6]); −0.1% in data set [2] (setting [7]); −0.2% in data set [2] (setting [8]); 0.0% in data set [3] (setting [7]). For the same compound, the “Assay (% w/w, by HPLC OAB), % change” value in data set [3] (setting [8]) is given as 0.0%. Also, the “Total RS (% area normalization, by HPLC)” value was 0.72 % area in data set [2] (setting [4]); 0.70 % area in data set [2] (1 Month, listed as Crystal B Sample 2); 1.10 % area in data set [2] (setting [5]); 0.92 % area in data set [2] (setting [6]); 0.90 % area in data set [2] (setting [7]); 1.08 % area in data set [2] (setting [8]). Besides, the “Total RS (% area normalization, by HPLC)” value is 0.64 % area in data set [2] (setting [9]); 0.59 % area in data set [2] (setting [10]); 0.53 % area in data set [3] (setting [7]); 0.61 % area in data set [3] (setting [8]); 0.64 % area in data set [3] (setting [9]); 0.59 % area in data set [3] (setting [10]). Further, the “Assay (% w/w, by HPLC OAB)” value in data set [2] (setting [9]) is 99.9 % w/w; in data set [2] (setting [10]), 99.4 % w/w; in data set [3] (setting [9]) it was 99.9 % w/w; in data set [3] (setting [10]) it was 99.4 % w/w. Also, the “Stability under accelerated storage conditions compared with the other crystal form (in words)” value in data set [2] (about 40° C., about 75% RH, up to 3 months) is “increased storage stability; also recorded: superior stability”. Besides, in data set [2] (over a period of at least 3 months under accelerated storage conditions), the “Amount of compound that degrades” value is on record as ≤ 0.5%.
For the compound `C=CC1=C(C(=O)O)N2C(=O)[C@@H](NC(=O)/C(=N\O)c3csc(N)n3)[C@H]2SC1` [Cefdinir Crystal A, 7β-[(Z)-2-(2-amino-4-thiazolyl)-2-hydroxyiminoacetamido]-3-vinyl-3-cephem-4-carboxylic acid, reference compound], the “Assay (% w/w, by HPLC OAB), % change” value was −0.5% in data set [2] (1 Month), −1.6% in data set [2] (2 Months), −1.8% in data set [2] (3 Months) and −0.2% in data set [3] (3 Months). The “Total RS (% area normalization, by HPLC)” value in data set [2] (1 Month) was found to be 1.98 % area; in data set [2] (2 Months), 2.25 % area; in data set [2] (3 Months), 2.06 % area; in data set [2] (Initial) it was 0.82 % area; in data set [3] (3 Months), 1.18 % area; in data set [3] (Initial), 0.82 % area. Further, the “Assay (% w/w, by HPLC OAB)” value in data set [2] (Initial) and in data set [3] (Initial) was 96.3 % w/w each time. Moreover, in data set [2] (after 3 months under accelerated storage conditions), the “Change in the assay” value is given as “about 1.8%”. For the same compound, the “Stability under normal storage conditions compared with the other crystal form (in words)” value in data set [3] (25° C.±2° C./60% RH±5% RH, 3 months) is on record as “as stable as crystal B”.
